Data from patent US10662210B2, “Compositions and methods comprising osmium for the treatment of cancers” (Massachusetts Institute of Technology, priority 2014, dated 2020).

Columns and labels:
ER of A2780 cells = test: Fluorescence microscopy of ER size (ER tracker Blue); format: cell-based, human; settings: 10 μM
Procedure: This finding led to the investigation of the possibility that 4 may induce endoplasmic reticulum (ER) stress. Co-administration of 4 and salubrinal (10 μM), a known ER stress inhibitor, reduced the cytotoxicity of 4 in A2780 cells. […] To further validate the ER as the main target for 4, the expression of proteins related to the unfolded protein response (UPR) was monitored. […] ER membrane expansion is widely associated with ER stress. With this fact in mind the ER size of A2780 cells upon incubation with 4 were examined using fluorescence microscopy. Relative to untreated controls (FIG. 3B), cells exposed to 4 (10 μM) for 4 h had 25.1% larger ER coverage (FIG. 3C). […]
A2780 cells (1×10^4) were incubated with and without 4 (10 μM) for 6 h. […] Fluorescence imaging experiments were performed using a Zeiss Axiovert 200M inverted epifluorscence microscope with a Hamamatsu EM-CCD digital camera C9100 and a MS200 XY Piezo Z stage (Applied Scientific Instruments, Inc.). […] The exposure time for acquisition of fluorescence images was kept constant for each series of images at each channel. The ER and whole cell size was quantified using ImageJ (version 1.45, NIH). The size of the whole cell was measured by tracing the outline of the cell membrane in the DIC view. The size of the ER was measured by tracing the outline of emission observed from ER tracker Blue in the DAPI (blue) channel. […]

HMLER CSC-depleted = test: Cytotoxicity against CSC-depleted breast cancer cells; format: cell-based
Excerpt: (§1) Cancer relapse is strongly linked to the existence of CSCs. […] Conventional chemotherapy and radiotherapy are often ineffective against CSCs. Although current therapies effectively reduce tumor mass by destroying the bulk of cancer cells, they are unable to remove CSCs, which persist and generate new tumors, often of a far more aggressive nature. Therefore, in order to improve clinical outcomes, treatments must have the ability to kill the entirety of cancer cells, including CSCs. The osmium compound, described in Formula (I), wherein X^1, X^2, and X^3 were chloride ligands and the bidentate ligand was a 1,10-phenanthroline ligand, was able to kill breast cancer cells (HMLER) enriched with CSCs, 2.3-fold better than CSC-depleted breast cancer cells. […] The selectivity of the osmium compound can be seen in Table 2 as well as FIGS. 17A-B and 18.
(§2) The colorimetric MTT assay was used to determine the toxicity of the osmium complexes and cisplatin. Cells (2×10^3) were seeded in each well of a 96-well plate. After incubating the cells overnight, various concentrations of test compound (0.3-100 μM) were added and incubated for 72 h (total volume 200 μL). The test compounds were prepared as 10 mM solutions in DMSO and diluted using media. The final concentration of DMSO in each well was 0.5% and this amount was present in the untreated control as well. Cisplatin was prepared as a 5 mM solution in PBS and diluted further using media. After 72 h, the medium was removed, 200 μL of a 0.4 mg/mL solution of MTT in DMEM or RPMI was added, and the plate was incubated for an additional 1-2 h. The DMEM/MTT or RPMI/MTT mixture was aspirated and 200 μL of DMSO was added to dissolve the resulting purple formazan crystals. The absorbance of the solution wells was read at 550 nm. Absorbance values were normalized to DMSO-containing control wells and plotted as concentration of test compound versus % cell viability. IC50 values were interpolated from the resulting dose dependent curves. The reported IC50 values are the average from at least three independent experiments, each of which consisted of six replicates per concentration level.

HMLER^tax CSC-enriched = test: Cytotoxicity against CSC-enriched breast cancer cells; format: cell-based
Excerpt: as §1, §2

[1] = Stability of 2 by UV-vis spectroscopy and variable temperature 1H NMR; format: physicochemical
Excerpt: The bidentate ligands used were 2,2′-bipyridine, 1,10-phenanthroline, 3,4,7,8-tetramethyl-1,10-phenanthroline, and 4,7-diphenyl-1,10-phenanthroline. The complexes were synthesized by reacting (Bu4N)[OsNCl4] with the appropriate ligand in acetone or dichloromethane. Characterization of 1-4 and the crystal structure of 4 are reported in Example 4. Prior to carrying out cellular studies, the stability of 2, taken as a representative member of the family, in phosphate buffered saline (PBS) and DMEM cell culture media was established by UV-vis spectroscopy. […] The water-octanol coefficient (log P) for each compound was also determined.

ct-DNA = test: DNA binding kinetics (osmium bound to precipitated ct-DNA); settings: 25 μM complex, 250 μM ct-DNA, 37° C.
Procedure: The osmium compounds were hypothesized to induce cell death through DNA interactions. Therefore, the interaction of 2 or 4 with pUC19 plasmid DNA was investigated using gel electrophoresis; the results of which are as shown in FIG. 6. As the concentration of 2 increased, there was a clear increase in the amount of nicked circular, and a concomitant decrease in the amount of supercoiled, plasmid DNA. At concentrations >250 μM, the bands in the gel smeared and then disappeared. […] The DNA binding kinetics of 2 and 4 were studied by measuring the amount of osmium bound to precipitated ct-DNA; the results of which are as shown in FIG. 7. The half-life of this reaction for 2 was 2 hours.
The amount of osmium covalently bound to ct-DNA was determined by modification of a previously reported protocol. A solution of ct-DNA (0.25 mM, nucleotide) was incubated with 2 or 4 at a bp:metal complex ratio of 5:1 at 37° C. in 1 mM sodium phosphate buffer, pH 7.4, containing 3 mM NaCl. At certain time points, a 250 μL aliquot was removed and the DNA was precipitated by adding 10 μL of NaCl (5 M) and 1.0 mL of EtOH (stored at 4° C.). The solution was centrifuged to remove DNA, and the concentration of unbound osmium was determined by GF-AAS.

Compound	larger ER coverage relative to untreated controls (ER of A2780 cells; 4 h) [%]	ER size relative to the whole cell (ER of A2780 cells; treated samples)	IC50 (HMLER CSC-depleted) [µM]	IC50 (HMLER^tax CSC-enriched) [µM]	HMLER^tax selectivity (HMLER^tax CSC-enriched; CSC-enriched vs CSC-depleted)	stability in phosphate buffered saline (PBS) and DMEM cell culture media ([1]; UV-vis spectroscopy)	thermal stability ([1]; variable temperature 1H NMR spectroscopy)	half-life of ct-DNA binding reaction (ct-DNA) [h]
[N]#[Os]1([Cl])([Cl])([Cl])[N]2C=CC(c3ccccc3)=c3ccc4c(c32)[N]1C=CC=4c1ccccc1 [Complex 4, OsN(4,7-diphenyl-1,10-phenanthroline)Cl3]	25.1	about 55%						
[N]#[Os]1([Cl])([Cl])([Cl])[N]2C=CC=c3ccc4c(c32)[N]1C=CC=4 [Complex 2, OsN(1,10-phenanthroline)Cl3]			11.2	4.91	2.31	established	demonstrated	2
